Laboratory results published in patent US20210381022A1, “INTEGRATED DRUG DISCOVERY PLATFORM FOR INBORN ERROR OF METABOLISM DISORDERS” (RAMOT AT TEL-AVIV UNIVERSITY LTD., priority 2018, published 2021).
Entries after “also recorded” stand apart in the source; their conditions may differ.

Columns and labels:
[1] = tested on: aro4Δ mutant; experiment: Yeast growth assay of aro4Δ mutant with phenylalanine; type: cell-based, Saccharomyces cerevisiae; details: SD medium with phenylalanine
Source text: The focus was put on a strain with a deletion of the ARO4 gene. The inventors aimed to determine whether the toxic effect is influenced by phenylalanine feeding. Thus, the cellular growth of wild-type and the aro4Δ mutant was examined by serial dilutions on selective plates that were supplemented with phenylalanine. In addition, cellular growth was also examined by measuring the turbidity of the medium upon addition of phenylalanine (FIG. 26A, 26B).

[2] = tested on: RB857 (PAH-1 mutant) and N2 (WT) worms; experiment: C. elegans model for PKU; type: in vivo, Caenorhabditis elegans
Description: (§1) Wild-type N2, RB857 and NL2099 worms were obtained from the Caenorhabditis Genetics Center. RNAi clones was obtained from the Ahringer RNAi library as previously described [Fisher A L, et al., J. Biol. Chem. 283: 9127-9135(2008)]. Worms were grown on NGM media without peptone and the metabolites were added into a boiling media. Baicalein and EGCG were added to a media after cooled down to 45 degrees.
To study PKU in C. elegans model, a strain was used with mutation in the PAH-1 gene (RB857)]. […] Next, the effect of one of the previously identified hits i.e. baicalein was examined on the development of worms. The life cycle of C. elegans is comprised of the embryonic stage, four larval stages (L1-L4) and adulthood. The end of each larval stage is marked with a molt, during which a new, stage-specific cuticle is synthesized and the old one is shed.

[3] = tested on: gcv1Δ cells; details: SD media with glycine
[4] = tested on: aro3Δ mutant; experiment: Yeast growth assay of aro3Δ mutant with tyrosine feeding; type: cell-based, Saccharomyces cerevisiae
Description: (§2) Strains were grown over night at 30° C. in SD medium without adenine. For spotting assays, strains were diluted to 6.25*10^7 cells/mL and were then 5-fold serially diluted and spotted on SD media with the indicated concentrations of adenine or TA (Sigma-Aldrich). Plates were incubated at 30° C. for 2 days. […] For OD600 measurements, strains were diluted to OD600 0.01, 200 μL of cells were platted on 96 wells plates and incubated at 30° C. for 25 hours with continuous shaking. OD600 was measured using Tecan™ SPARK 10M plate reader.
The focus was put on a strain with a deletion of the ARO3 gene in which a significant decrease in cellular growth was observed upon tyrosine feeding (see FIG. 21). The inventors aimed to determine whether the toxic effect was influenced by different levels of tyrosine. Thus, the cellular growth of wild-type and the aro3Δ mutant was examined by serial dilutions on selective plates that were supplemented with different concentrations of tyrosine (FIG. 21A). In addition, cellular growth was also examined by measuring the turbidity of the medium upon addition of the indicated concentration of tyrosine (FIG. 21B). […] Thus, cell growth is affected by tyrosine levels in a dose-dependent manner which further supports the notion that the toxicity in the aro3Δ mutant results from the presence of tyrosine.
In order to examine the effect of EGCG on cell growth, the aro3Δ mutant was spotted on 4a.a SD plates that contained tyrosine alone or tyrosine with different concentrations of EGCG. […] Thus, the lag phase in the presence of EGCG was nearly the same as cells unexposed to tyrosine, indicating the potent ability of EGCG to eliminate the tyrosine sensitivity of the aro3Δ mutant. […] Next, the inventors aimed to gain additional insights into the effect of EGCG on the amyloid-like fibrils formed by the accumulation of tyrosine in the aro3Δ mutant cells. For that purpose, cells were stained with the amyloid-specific dye ProteoStat®, and FACS was applied to detect tyrosine aggregates. […] (FIG. 25).

[5] = tested on: tyrosine aggregates in aro3Δ mutant cells; experiment: Flow cytometry with ProteoStat staining of aro3Δ mutant; type: cell-based, Saccharomyces cerevisiae; details: tyrosine 0.02 mM, EGCG 5 mM
Description: An amount of 1 mL of logarithmic cells were washed with PBS buffer and sonicated using 15 s pulses at 20% power. For each sample, 2*10^6 cells were resuspended with ProteoStat dye (Enzo Life Sciences) diluted 1:3000 in ProteoStat assay buffer. Cells were incubated for 15 min at room temperature protected from light. Flow cytometry was preformed using Stratedigm S1000EXi and the CellCapTure software (Stratedigm, San Jose, Calif.). Live cells were gated (P1) by forward scatter and side scatter. Fluorescence channels for FITC (530/30) and PE-Cy5 (676/29) were used utilizing a 488 nm laser source. A total of 50,000 events were acquired for each sample. Analyses were performed using FlowJo software (TreeStar, version 10).
In order to examine whether the inhibition in cell growth in a non-linear cooperative manner upon tyrosine feeding (FIG. 23A, 23B) is associated with in vivo formation of amyloid-like assemblies, cells were stained with ProteoStat®, a well-established amyloid-specific fluorescent dye that was previously shown to detect the presence of intracellular protein amyloid-like aggregates in living bacterial cells with high specificity, even when the target proteins are expressed at low levels.
In order to examine the effect of EGCG on cell growth, the aro3Δ mutant was spotted on 4a.a SD plates that contained tyrosine alone or tyrosine with different concentrations of EGCG. […]

[6] = tested on: wild-type strain; experiment: Yeast growth assay of wild-type strain; type: cell-based, Saccharomyces cerevisiae; details: tyrosine in media, EGCG added
Description: as §2

[7] = tested on: fah-1 RNAi treated worms; experiment: C. elegans model for Tyrosinemia (fah-1 RNAi); type: in vivo, Caenorhabditis elegans; details: fah-1 RNAi, tyrosine added, EGCG added
Description: as §1
Mutations in different enzymes that are involved in the tyrosine degradation pathway are responsible for different types of Tyrosinemia. The tyrosine degradation pathway in mammals and C. elegans in conserved and the most severe is type I Tyrosinemia, which is caused by mutations affecting the last enzyme in the pathway, fumarylacetoacetate hydrolase (FAH). To study Tyrosinemia in C. elegans model, an RNAi was used that specifically silences the fumarylacetoacetate hydrolase (fah-1), as was previously reported (K10C4.2). RNAi directed against fah-1 causes severe phenotype of reduced size, impaired fertility and reduction of total number of viable worms (FIG. 32).

[8] = tested on: phenylalanine assemblies; details: reference [4]; cited from earlier work
[9] = tested on: lat1Δ; experiment: Yeast growth assay of lat1Δ with isoleucine; type: cell-based, Saccharomyces cerevisiae; details: minimal media with isoleucine, 40 h
Description: Growth curves of WT and lat1Δ on minimal media with or without […] isoleucine. Cells were incubated at 30° C. for 40 h, with continuous shaking.
To establish an in vivo model in yeast for the study of BCAA accumulation and toxicity, the LAT1 gene was disrupted. LAT1 encodes the dihydrolipoamide acetyltransferase component (E2) of the yeast pyruvate dehydrogenase complex. LAT1 catalyzes the oxidative decarboxylation of pyruvate to acetyl-CoA and mutations in DBT1, the human homolog, can lead to Maple Syrup Urine Disease (MSUD).

Compound: N[C@@H](Cc1ccccc1)C(=O)O [phenylalanine]
- growth of aro4Δ mutant with phenylalanine in the medium [1]: growth inhibition
- RB857 worms that didn't reach adulthood by day 10 ([2]; 100 mM Phenylalanine): more than 90%
- worms reaching adulthood on day 4 ([2]; RB857, 100 mM phenylalanine in minimal media): none of the worms reached adulthood on day 4
- number of worms ([2]; RB857, phenylalanine added): significantly reduced the number of worms

Compound: NCC(=O)O [glycine]
- growth with glycine in the growth medium [3]: dose-dependent growth inhibition

Compound: O=C(O[C@@H]1Cc2c(O)cc(O)cc2O[C@@H]1c1cc(O)c(O)c(O)c1)c1cc(O)c(O)c(O)c1 [EGCG, epigallocatechin gallate]
- growth of aro3Δ mutant ([4]; 4a.a SD with 0.03 mM tyrosine, different concentrations of EGCG): significant improvement in growth in a dose-dependent manner
- lag phase of cell growth kinetics ([4]; tyrosine in media, EGCG treated vs untreated cells): notably shorter
- tyrosine aggregates percentage (ProteoStat, FACS) [5]: dramatic reduction in the tyrosine aggregates percentage
- growth of wild-type cells [6]: no significant changes
- fertility of worms [7]: enhance the fertility of worms; also recorded: partially restore
- total number of viable worms [7]: elevation of the total number of worms; also recorded: partially restore
- phenylalanine aggregation and cytotoxicity of the assemblies in vitro [8]: counteract

Compound: CC[C@H](C)[C@H](N)C(=O)O [isoleucine]
- growth with isoleucine in the growth medium [9]: sensitivity
